Assay results as given in PubChem BioAssay AID272 (DTP/NCI, 2004).
“And” between values parts separate entries of the source, which are not always exact repeats. Identical values can stand only once. Records with an inconclusive call do not appear.

System: Lewis lung carcinoma i.m., BDF1 mice, T/C %
Test: NCI In Vivo Anticancer Drug Screen. Data for tumor model Lewis Lung Carcinoma (intramuscular) in B6D2F1 (BDF1) mice
Experimental: The antitumor activity of compounds was measured in mice bearing transplantable tumors. Survival or tumor size were measured and the results are expressed as the measurement made in the treated group (T) divided by the measurement made in the vehicle treated control group (C). The tumor model used in this assay is Lewis Lung Carcinoma (intramuscular) in B6D2F1 (BDF1) mice

[1] = endpoint: median survival time, dose: 0.25 mg/kg/injection, schedule: Q01DX011 (ip), vehicle: saline, higher = longer survival
[2] = endpoint: median survival time, dose: 0.5 mg/kg/injection, schedule: Q01DX011 (ip), vehicle: saline, higher = longer survival
[3] = endpoint: median survival time, dose: 1.0 mg/kg/injection, schedule: Q01DX011 (ip), vehicle: saline, higher = longer survival
[4] = endpoint: median survival time, dose: 2.0 mg/kg/injection, schedule: Q01DX011 (ip), vehicle: saline, higher = longer survival
[5] = endpoint: median survival time, dose: 4.0 mg/kg/injection, schedule: Q01DX011 (ip), vehicle: saline, higher = longer survival
[6] = endpoint: median survival time, dose: 10.0 mg/kg/injection, schedule: Q01DX011 (ip), vehicle: saline with Tween-80, higher = longer survival
[7] = endpoint: median survival time, dose: 20.0 mg/kg/injection, schedule: Q01DX011 (ip), vehicle: saline with Tween-80, higher = longer survival
[8] = endpoint: mean tumor weight (est.), dose: 100.0 mg/kg/injection, schedule: Q01DX011 (ip), vehicle: saline, higher = larger tumour
[9] = endpoint: mean tumor weight (est.), dose: 200.0 mg/kg/injection, schedule: Q01DX011 (ip), vehicle: saline, higher = larger tumour
[10] = endpoint: median survival time, dose: 200.0 mg/kg/injection, schedule: Q01DX011 (ip), vehicle: saline, higher = longer survival
[11] = endpoint: mean tumor weight (est.), dose: 100.0 mg/kg/injection, schedule: Q01DX011 (ip), vehicle: saline with Tween-80, higher = larger tumour

## COc1cc([C@@H]2c3cc4c(cc3[C@@H](OC3OC5COC(C)OC5C(O)C3O)[C@H]3COC(=O)[C@H]23)OCO4)cc(OC)c1O (stereo partly drawn)
endpoint: mean tumor weight (est.), dose: 0.25 mg/kg/injection, schedule: Q01DX011 (ip), vehicle: saline, higher = larger tumour
  T/C: 72 % of control
endpoint: mean tumor weight (est.), dose: 0.5 mg/kg/injection, schedule: Q01DX011 (ip), vehicle: saline, higher = larger tumour
  T/C: 67 % of control
endpoint: mean tumor weight (est.), dose: 1.0 mg/kg/injection, schedule: Q01DX011 (ip), vehicle: saline, higher = larger tumour
  T/C: 79 % of control
endpoint: mean tumor weight (est.), dose: 2.0 mg/kg/injection, schedule: Q01DX011 (ip), vehicle: saline, higher = larger tumour
  T/C: 74 % of control
endpoint: mean tumor weight (est.), dose: 4.0 mg/kg/injection, schedule: Q01DX011 (ip), vehicle: saline, higher = larger tumour
  T/C: 43 % of control
endpoint: mean tumor weight (est.), dose: 5.0 mg/kg/injection, schedule: Q01DX011 (ip), vehicle: saline, higher = larger tumour
  T/C: 105 % of control
[1]
  T/C: 96 % of control
[2]
  T/C: 98 % of control
[3]
  T/C: 96 % of control
[4]
  T/C: 107 % of control
[5]
  T/C: 101 % of control

## COC(=O)C[C@](O)(CCC(C)(C)O)C(=O)O[C@@H]1C(OC)=C[C@]23CCCN2CCc2cc4c(cc2[C@H]13)OCO4
endpoint: mean tumor weight, dose: 0.25 mg/kg/injection, schedule: Q01DX011 (ip), vehicle: saline, higher = larger tumour
  T/C: 103 % of control
endpoint: mean tumor weight, dose: 0.5 mg/kg/injection, schedule: Q01DX011 (ip), vehicle: saline, higher = larger tumour
  T/C: 104 % of control
endpoint: mean tumor weight, dose: 0.5 mg/kg/injection, schedule: Q01DX011 (ip), vehicle: water, higher = larger tumour
  T/C: 75 % of control
endpoint: mean tumor weight, dose: 1.0 mg/kg/injection, schedule: Q01DX011 (ip), vehicle: water, higher = larger tumour
  T/C: 106 % of control
[1]
  T/C: 114 % of control
[2]
  T/C: 114 % of control

## N[C@H](C(=O)O)[C@H]1ON=C(Cl)[C@@H]1O
endpoint: median survival time, dose: 8.0 mg/kg/injection, schedule: Q01DX013 (ip), vehicle: saline, higher = longer survival
  T/C: 92 % of control
endpoint: median survival time, dose: 16.0 mg/kg/injection, schedule: Q01DX013 (ip), vehicle: saline, higher = longer survival
  T/C: 107 % of control

## CN(Cc1ccccc1)/N=N/c1nc[nH]c1C(N)=O
endpoint: mean tumor weight, dose: 50.0 mg/kg/injection, schedule: Q01DX011 (ip), vehicle: saline, higher = larger tumour
  T/C: 64 % of control
endpoint: median survival time, dose: 50.0 mg/kg/injection, schedule: Q01DX011 (ip), vehicle: saline, higher = longer survival
  T/C: 91 % of control

## O=NN(CCCl)C(=O)Nc1ccc(CCCl)cc1
endpoint: median survival time, dose: 3.0 mg/kg/injection, schedule: Q07DX003 (ip), vehicle: Klucel (hydroxypropylcellulose) (HPC), higher = longer survival
  T/C: 110 % of control
endpoint: median survival time, dose: 5.0 mg/kg/injection, schedule: Q07DX003 (ip), vehicle: Klucel (hydroxypropylcellulose) (HPC), higher = longer survival
  T/C: 116 % of control
endpoint: median survival time, dose: 8.4 mg/kg/injection, schedule: Q07DX003 (ip), vehicle: Klucel (hydroxypropylcellulose) (HPC), higher = longer survival
  T/C: 108 % of control
endpoint: median survival time, dose: 14.0 mg/kg/injection, schedule: Q07DX003 (ip), vehicle: Klucel (hydroxypropylcellulose) (HPC), higher = longer survival
  T/C: 116 % of control
endpoint: median survival time, dose: 23.0 mg/kg/injection, schedule: Q07DX003 (ip), vehicle: Klucel (hydroxypropylcellulose) (HPC), higher = longer survival
  T/C: 95 % of control

## NC(=O)c1cc(N2CC2)c([N+](=O)[O-])cc1[N+](=O)[O-]
endpoint: mean tumor weight, dose: 10.0 mg/kg/injection, schedule: Q01DX011 (ip), vehicle: saline with Tween-80, higher = larger tumour
  T/C: 100 % of control
endpoint: mean tumor weight, dose: 20.0 mg/kg/injection, schedule: Q01DX011 (ip), vehicle: saline with Tween-80, higher = larger tumour
  T/C: 52 % of control
endpoint: mean tumor weight, dose: 40.0 mg/kg/injection, schedule: Q01DX011 (ip), vehicle: saline with Tween-80, higher = larger tumour
  T/C: 5 % of control
[6]
  T/C: 94 % of control
[7]
  T/C: 116 % of control
endpoint: median survival time, dose: 40.0 mg/kg/injection, schedule: Q01DX011 (ip), vehicle: saline with Tween-80, higher = longer survival
  T/C: 88 % of control

## CC(C)n1c2c([n+](C)c1/C=C/c1ccccc1)C(=O)c1ccccc1C2=O
endpoint: mean tumor weight (est.), dose: 1.0 mg/kg/injection, schedule: Q01DX011 (ip), vehicle: saline with Tween-80, higher = larger tumour
  T/C: 43 % of control

## CCCCN(C)C(=S)S[Te](SC(=S)N(C)CCCC)(SC(=S)N(C)CCCC)SC(=S)N(C)CCCC
[8]
  T/C: 59 % of control
[9]
  T/C: 36 % of control
endpoint: mean tumor weight (est.), dose: 400.0 mg/kg/injection, schedule: Q01DX011 (ip), vehicle: saline, higher = larger tumour
  T/C: 17 % of control
endpoint: median survival time, dose: 100.0 mg/kg/injection, schedule: Q01DX011 (ip), vehicle: saline, higher = longer survival
  T/C: 114 % of control
[10]
  T/C: 110 % of control
endpoint: median survival time, dose: 400.0 mg/kg/injection, schedule: Q01DX011 (ip), vehicle: saline, higher = longer survival
  T/C: 121 % of control

## Cc1c(N)nc(C(CC(N)=O)NCC(N)C(N)=O)nc1C(=O)NC(C(=O)NC(C)C(O)C(C)C(=O)NC(C(=O)NCCc1nc(-c2nc(C(=O)NCCCNCCCCN)cs2)cs1)C(C)O)C(OC1OC(CO)C(O)C(O)C1OC1OC(CO)C(O)C(OC(N)=O)C1O)c1cnc[nH]1 (stereo not drawn)
endpoint: median survival time, dose: 3.9 mg/kg/injection, schedule: Q01DX011 (ip), vehicle: saline, higher = longer survival
  T/C: 120 % of control
endpoint: median survival time, dose: 10.8 mg/kg/injection, schedule: Q01DX011 (ip), vehicle: saline, higher = longer survival
  T/C: 150 % of control
endpoint: median survival time, dose: 18.0 mg/kg/injection, schedule: Q01DX011 (ip), vehicle: saline, higher = longer survival
  T/C: 152 % of control

## NCC(=O)c1ccc(O)c(O)c1
[8]
  T/C: 76 % of control
[9]
  T/C: 58 % of control
[10]
  T/C: 96 % of control

## O=[N+]([O-])c1ccc(N/N=C/CC(O)CO)c([N+](=O)[O-])c1 (stereo not drawn)
[11]
  T/C: 57 % of control
endpoint: mean tumor weight (est.), dose: 200.0 mg/kg/injection, schedule: Q01DX011 (ip), vehicle: saline with Tween-80, higher = larger tumour
  T/C: 52 % of control
endpoint: median survival time, dose: 100.0 mg/kg/injection, schedule: Q01DX011 (ip), vehicle: saline with Tween-80, higher = longer survival
  T/C: 92 % of control

## O=c1ccc2nc3ccccc3sc-2c1
endpoint: mean tumor weight (est.), dose: 12.5 mg/kg/injection, schedule: Q01DX011 (ip), vehicle: saline with Tween-80, higher = larger tumour
  T/C: 73 % of control
endpoint: mean tumor weight (est.), dose: 25.0 mg/kg/injection, schedule: Q01DX011 (ip), vehicle: saline with Tween-80, higher = larger tumour
  T/C: 75 % of control
endpoint: mean tumor weight (est.), dose: 50.0 mg/kg/injection, schedule: Q01DX011 (ip), vehicle: saline with Tween-80, higher = larger tumour
  T/C: 78 % of control
[11]
  T/C: 42 % of control
endpoint: median survival time, dose: 25.0 mg/kg/injection, schedule: Q01DX011 (ip), vehicle: saline with Tween-80, higher = longer survival
  T/C: 89 % of control

## O=c1[nH]cc(N(CCCl)CCCl)c(=O)[nH]1
endpoint: median survival time, dose: 0.13 mg/kg/injection, schedule: Q01DX011 (ip), vehicle: other, higher = longer survival
  T/C: 104 % of control
endpoint: median survival time, dose: 0.25 mg/kg/injection, schedule: Q01DX011 (ip), vehicle: other, higher = longer survival
  T/C: 110 % of control
endpoint: median survival time, dose: 0.5 mg/kg/injection, schedule: Q01DX011 (ip), vehicle: other, higher = longer survival
  T/C: 102 % of control
[2]
  T/C: 92 % of control

## O=C(O)CCCc1ccc(N(CCCl)CCCl)cc1
endpoint: mean tumor weight, dose: 2.5 mg/kg/injection, schedule: Q01DX011 (ip), vehicle: carboxymethylcellulose (CMC), higher = larger tumour
  T/C: 92 % of control
endpoint: mean tumor weight, dose: 5.0 mg/kg/injection, schedule: Q01DX011 (ip), vehicle: carboxymethylcellulose (CMC), higher = larger tumour
  T/C: 56 % of control
endpoint: mean tumor weight, dose: 10.0 mg/kg/injection, schedule: Q01DX011 (ip), vehicle: carboxymethylcellulose (CMC), higher = larger tumour
  T/C: 56 % of control
[2]
  T/C: 98 % of control and 101 % of control
[3]
  T/C: 91 % of control and 92 % of control
[4]
  T/C: 92 % of control and 110 % of control
endpoint: median survival time, dose: 2.5 mg/kg/injection, schedule: Q01DX011 (ip), vehicle: carboxymethylcellulose (CMC), higher = longer survival
  T/C: 95 % of control
[5]
  T/C: 97 % of control and 118 % of control
endpoint: median survival time, dose: 5.0 mg/kg/injection, schedule: Q01DX011 (ip), vehicle: carboxymethylcellulose (CMC), higher = longer survival
  T/C: 122 % of control
endpoint: median survival time, dose: 8.0 mg/kg/injection, schedule: Q01DX011 (ip), vehicle: saline, higher = longer survival
  T/C: 88 % of control and 105 % of control
endpoint: median survival time, dose: 10.0 mg/kg/injection, schedule: Q01DX011 (ip), vehicle: carboxymethylcellulose (CMC), higher = longer survival
  T/C: 108 % of control

## O=C(CBr)OCCOc1ccccc1
endpoint: mean tumor weight (est.), dose: 5.0 mg/kg/injection, schedule: Q01DX011 (ip), vehicle: saline with Tween-80, higher = larger tumour
  T/C: 85 % of control
endpoint: mean tumor weight (est.), dose: 10.0 mg/kg/injection, schedule: Q01DX011 (ip), vehicle: saline with Tween-80, higher = larger tumour
  T/C: 93 % of control
endpoint: mean tumor weight (est.), dose: 20.0 mg/kg/injection, schedule: Q01DX011 (ip), vehicle: saline with Tween-80, higher = larger tumour
  T/C: 85 % of control
endpoint: median survival time, dose: 5.0 mg/kg/injection, schedule: Q01DX011 (ip), vehicle: saline with Tween-80, higher = longer survival
  T/C: 88 % of control
[6]
  T/C: 104 % of control
[7]
  T/C: 108 % of control

## CCN1/C(=C/C(C)=C/c2sc3ccccc3[n+]2CC)Sc2ccccc21
endpoint: mean tumor weight (est.), dose: 50.0 micrograms/kg/injection, schedule: Q01DX011 (ip), vehicle: saline with Tween-80, higher = larger tumour
  T/C: 88 % of control
endpoint: mean tumor weight (est.), dose: 100.0 micrograms/kg/injection, schedule: Q01DX011 (ip), vehicle: saline with Tween-80, higher = larger tumour
  T/C: 74 % of control
endpoint: median survival time, dose: 50.0 micrograms/kg/injection, schedule: Q01DX011 (ip), vehicle: saline with Tween-80, higher = longer survival
  T/C: 91 % of control
endpoint: median survival time, dose: 100.0 micrograms/kg/injection, schedule: Q01DX011 (ip), vehicle: saline with Tween-80, higher = longer survival
  T/C: 87 % of control
